Laboratory results published in patent US7951810B2, “Substituted pyrrolo[2,3-d]pyrimidines as inhibitors of E1 activating enzymes” (Millennium Pharmaceuticals, Inc., priority 2005, dated 2011).

Target: T1, recombinant human NAE enzyme (Homo sapiens, UniProt Q8TBC4)
T1 construct: His (N); made in house; host or cells: Sf9 insect cells (baculovirus, Bac-to-Bac)
T1 sequence (Q8TBC4 1-463): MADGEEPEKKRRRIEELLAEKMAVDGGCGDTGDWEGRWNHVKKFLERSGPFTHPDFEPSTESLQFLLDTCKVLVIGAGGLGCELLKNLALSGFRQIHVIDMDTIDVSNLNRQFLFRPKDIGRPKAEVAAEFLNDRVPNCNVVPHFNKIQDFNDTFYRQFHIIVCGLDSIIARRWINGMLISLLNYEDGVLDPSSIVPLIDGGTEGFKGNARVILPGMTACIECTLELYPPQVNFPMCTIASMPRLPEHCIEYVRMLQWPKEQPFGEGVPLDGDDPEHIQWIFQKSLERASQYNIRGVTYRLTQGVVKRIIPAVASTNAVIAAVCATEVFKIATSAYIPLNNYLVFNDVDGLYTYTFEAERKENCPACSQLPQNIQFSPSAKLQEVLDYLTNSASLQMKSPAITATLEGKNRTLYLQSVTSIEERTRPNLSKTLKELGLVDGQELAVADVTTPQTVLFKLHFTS
T1 sequence (Q13564 1-534 partner): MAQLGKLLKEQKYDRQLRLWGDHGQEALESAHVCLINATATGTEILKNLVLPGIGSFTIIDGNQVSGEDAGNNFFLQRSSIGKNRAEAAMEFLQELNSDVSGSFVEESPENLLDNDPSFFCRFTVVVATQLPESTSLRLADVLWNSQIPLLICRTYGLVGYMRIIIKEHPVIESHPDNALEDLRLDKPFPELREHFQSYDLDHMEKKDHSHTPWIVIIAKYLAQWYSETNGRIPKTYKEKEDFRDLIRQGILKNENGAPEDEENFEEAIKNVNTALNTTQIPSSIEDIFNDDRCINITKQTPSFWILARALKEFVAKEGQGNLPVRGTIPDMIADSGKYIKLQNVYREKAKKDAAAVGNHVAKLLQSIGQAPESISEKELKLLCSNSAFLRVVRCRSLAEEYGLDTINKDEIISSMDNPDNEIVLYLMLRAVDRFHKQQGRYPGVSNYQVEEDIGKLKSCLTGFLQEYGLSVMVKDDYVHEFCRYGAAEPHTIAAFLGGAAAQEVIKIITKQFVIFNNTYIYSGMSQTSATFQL
Test: Nedd8-Activating Enzyme (NAE) HTRF assay
Assay type: biochemical
Conditions: 20 μM ATP, 90 minutes at 24° C.
Method: Following manufacturer instructions, baculoviruses were generated with the Bac-to-Bac Expression System (Invitrogen) for the following proteins: untagged NAEα (APPBP1; NP_003896.1), N-terminally His-tagged NAEβ (UBE1C; NP_003959.3), untagged SAEα (SAE1; NP_005491.1), N-terminally His-tagged SAEβ (UBA2; NP_005490.1), N-terminally His-tagged murine UAE (UBE1X; NP_033483). NAEα/His-NAEβ and SAEα/His-SAEβ complexes were generated by co-infection of Sf9 cells, which were harvested after 48 hours. His-mUAE was generated by single infection of Sf9 cells and harvested after 72 hours. Expressed proteins were purified by affinity chromatography (Ni-NTA agarose, Qiagen) using standard buffers.
Ubc12 (UBE2M; NP_003960.1), Ubc9 (UBE2I; NP_003336.1), Ubc2 (UBE2A; NP_003327.2) were subcloned into pGEX (Pharmacia) and expressed as N-terminally GST tagged fusion proteins in E. coli. Expressed proteins were purified by conventional affinity chromatography using standard buffers.
Nedd8 (NP_006147), Sumo-1 (NP_003343) and Ubiquitin (with optimized codons) were subcloned into pFLAG-2 (Sigma) and expressed as N-terminally Flag tagged fusion proteins in E. coli. Expressed proteins were purified by conventional chromatography using standard buffers.
Nedd8-Activating Enzyme (NAE) HTRF Assay.
The NAE enzymatic reaction totaled 50 μL and contained 50 mM HEPES (pH 7.5), 0.05% BSA, 5 mM MgCl2, 20 μM ATP, 250 μM GSH, 0.01 μM Ubc12-GST, 0.075 μM Nedd8-Flag and 0.28 nM recombinant human NAE enzyme. The enzymatic reaction mixture, with and without compound inhibitor, was incubated at 24° C. for 90 minutes in a 384-well plate before termination with 25 μL of Stop/Detection buffer (0.1M HEPES pH 7.5, 0.05% Tween20, 20 mM EDTA, 410 mM KF, 0.53 nM Europium-Cryptate labeled monoclonal anti-FLAG M2 antibody (CisBio International) and 8.125 μg/mL PHYCOLINK goat anti-GST allophycocyanin (XL-APC) antibody (Prozyme)). After incubation for 3 hours at 24° C., quantification of the FRET was performed on the Analyst™ HT 96.384 (Molecular Devices).

[1] = threshold less than or equal to 100 nM
[2] = threshold less than or equal to 1 μM

SMILES | IC50 [1] [nM] | IC50 [2] [nM]
C[C@@H](OS(N)(=O)=O)[C@H]1O[C@@H](n2cnc3c(N[C@H]4CCc5ccccc54)ncnc32)[C@H](O)[C@@H]1O [Compound I-58, (R)-1-((2S,3S,4R,5R)-5-(6-((S)-2,3-dihydro-1H-inden-1-ylamino)-9H-purin-9-yl)-3,4-dihydroxy-tetrahydrofuran-2-yl)ethyl sulfamate] | ≤ 100 | ≤ 1000
NS(=O)(=O)NC[C@H]1O[C@@H](n2cnc3c(NCc4ccc(F)cc4)ncnc32)[C@H](O)[C@@H]1O [Compound I-126, N-[((2R,3S,4R,5R)-5-{6-[(4-fluorobenzyl)amino]-9H-purin-9-yl}-3,4-dihydroxytetrahydrofuran-2-yl)methyl]sulfamide] | ≤ 100 | ≤ 1000
COCCc1ncnc2c1ncn2[C@@H]1O[C@H](COS(N)(=O)=O)[C@@H](O)[C@H]1O [Compound I-137, {(2R,3S,4R,5R)-3,4-dihydroxy-5-[6-(2-methoxyethyl)-9H-purin-9-yl]tetrahydrofuran-2-yl}methyl sulfamate] | ≤ 100 | ≤ 1000

Next, values leading:

IC50 [1] [nM] | IC50 [2] [nM] | SMILES
≤ 100 | ≤ 1000 | NS(=O)(=O)OC[C@H]1O[C@@H](n2cnc3c(N[C@H]4CCc5ccccc54)ncnc32)C[C@@H]1O [Compound I-1, ((2R,3S,5R)-5-{6-[(1S)-2,3-dihydro-1H-inden-1-ylamino]-9H-purin-9-yl}-3-hydroxytetrahydrofuran-2-yl)methyl sulfamate]
– | ≤ 1000 | Cn1cc(CNc2ncnc3c2ncn3[C@@H]2O[C@H](CNS(N)(=O)=O)[C@@H](O)[C@H]2O)cn1 [Compound I-38, N-{[(2R,3S,4R,5R)-3,4-dihydroxy-5-(6-{[(1-methyl-1H-pyrazol-4-yl)methyl]-amino}-9H-purin-9-yl)tetrahydrofuran-2-yl]methyl}sulfamide]
